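GI50: concentration for 50% inhibition of growth. TGI: total growth inhibition.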
Key:
Assay in all cases: NCI tumour cell line growth inhibition, 384-well format
SNB-19 CNS = system: SNB-19 CNS
DU-145 prostate = system: DU-145 prostate
MDA-MB-435 melanoma = system: MDA-MB-435 melanoma
EKVX NSCLC = system: EKVX NSCLC
HOP-92 NSCLC = system: HOP-92 NSCLC
SK-MEL-5 melanoma = system: SK-MEL-5 melanoma
MDA-MB-468 breast = system: MDA-MB-468 breast
M14 melanoma = system: M14 melanoma
OVCAR-4 ovarian = system: OVCAR-4 ovarian
OVCAR-8 ovarian = system: OVCAR-8 ovarian
HS 578T breast = system: HS 578T breast
MDA-MB-231 breast = system: MDA-MB-231 breast
MALME-3M melanoma = system: MALME-3M melanoma
NCI-H23 lung = system: NCI-H23 lung
NCI-H226 lung = system: NCI-H226 lung
SF-268 CNS = system: SF-268 CNS
PC-3 prostate = system: PC-3 prostate
HL-60(TB) leukemia = system: HL-60(TB) leukemia
TK-10 renal = system: TK-10 renal
SK-OV-3 ovarian = system: SK-OV-3 ovarian
HCT-116 colon = system: HCT-116 colon
MOLT-4 leukemia = system: MOLT-4 leukemia
786-0 renal = system: 786-0 renal
UACC-257 melanoma = system: UACC-257 melanoma
MCF7 breast = system: MCF7 breast
ACHN renal = system: ACHN renal
SF-539 CNS = system: SF-539 CNS
SK-MEL-28 melanoma = system: SK-MEL-28 melanoma
COLO 205 colon = system: COLO 205 colon
CCRF-CEM leukemia = system: CCRF-CEM leukemia
HT29 colon = system: HT29 colon
OVCAR-3 ovarian = system: OVCAR-3 ovarian
SNB-75 CNS = system: SNB-75 CNS
LOX IMVI melanoma = system: LOX IMVI melanoma
HCC-2998 colon = system: HCC-2998 colon
HCT-15 colon = system: HCT-15 colon
KM12 colon = system: KM12 colon
A549 NSCLC = system: A549 NSCLC
SN12C renal = system: SN12C renal
A498 renal = system: A498 renal
RXF 393 renal = system: RXF 393 renal
UO-31 renal = system: UO-31 renal
OVCAR-5 ovarian = system: OVCAR-5 ovarian
CAKI-1 renal = system: CAKI-1 renal
NCI/ADR-RES ovarian = system: NCI/ADR-RES ovarian
NCI-H460 NSCLC = system: NCI-H460 NSCLC
NCI-H322M lung = system: NCI-H322M lung
HOP-62 NSCLC = system: HOP-62 NSCLC
IGROV1 ovarian = system: IGROV1 ovarian
BT-549 breast = system: BT-549 breast
K-562 leukemia = system: K-562 leukemia
SF-295 CNS = system: SF-295 CNS

What does the source list for `Cn1cc(C2=C(c3cn(C4CCN(Cc5ccccn5)CC4)c4ccccc34)C(=O)NC2=O)c2ccccc21`?
GI50 (SNB-19 CNS): 2.61 µM; TGI (SNB-19 CNS): > 100 µM; GI50 (DU-145 prostate): 2.65 µM; TGI (DU-145 prostate): > 100 µM; GI50 (MDA-MB-435 melanoma): 0.421 µM; TGI (MDA-MB-435 melanoma): 39.4 µM; GI50 (EKVX NSCLC): 0.917 µM; TGI (EKVX NSCLC): > 100 µM; GI50 (HOP-92 NSCLC): 4.24 µM; TGI (HOP-92 NSCLC): > 100 µM; GI50 (SK-MEL-5 melanoma): 0.372 µM; TGI (SK-MEL-5 melanoma): 95.5 µM; GI50 (MDA-MB-468 breast): 0.274 µM; TGI (MDA-MB-468 breast): 0.593 µM; GI50 (M14 melanoma): 2.94 µM; TGI (M14 melanoma): 9.21 µM; GI50 (OVCAR-4 ovarian): 3.33 µM; TGI (OVCAR-4 ovarian): > 100 µM; GI50 (OVCAR-8 ovarian): 6.7 µM; TGI (OVCAR-8 ovarian): > 100 µM; GI50 (HS 578T breast): 2.22 µM; TGI (HS 578T breast): 5.08 µM; GI50 (MDA-MB-231 breast): 4.21 µM; TGI (MDA-MB-231 breast): > 100 µM; GI50 (MALME-3M melanoma): 2.84 µM; TGI (MALME-3M melanoma): 7.71 µM; GI50 (NCI-H23 lung): 5.28 µM; TGI (NCI-H23 lung): > 100 µM; GI50 (NCI-H226 lung): 3.31 µM; TGI (NCI-H226 lung): > 100 µM; GI50 (SF-268 CNS): 3 µM; TGI (SF-268 CNS): 7.84 µM; GI50 (PC-3 prostate): 2.98 µM; TGI (PC-3 prostate): > 100 µM; GI50 (HL-60(TB) leukemia): 0.713 µM; TGI (HL-60(TB) leukemia): 2.54 µM; GI50 (TK-10 renal): 2.7 µM; TGI (TK-10 renal): > 100 µM; GI50 (SK-OV-3 ovarian): 2.52 µM; TGI (SK-OV-3 ovarian): > 100 µM; GI50 (HCT-116 colon): 0.645 µM; TGI (HCT-116 colon): > 100 µM; GI50 (MOLT-4 leukemia): 1.9 µM; TGI (MOLT-4 leukemia): 3.35 µM; GI50 ([…]-0 renal): 3.31 µM; TGI (786-0 renal): > 100 µM; GI50 (UACC-257 melanoma): > 100 µM; TGI (UACC-257 melanoma): > 100 µM; GI50 (MCF7 breast): 2.98 µM; TGI (MCF7 breast): > 100 µM; GI50 (ACHN renal): 8.73 µM; TGI (ACHN renal): > 100 µM; GI50 (SF-539 CNS): 1.2 µM; TGI (SF-539 CNS): > 100 µM; GI50 (SK-MEL-28 melanoma): 2.89 µM; TGI (SK-MEL-28 melanoma): > 100 µM; GI50 (COLO 205 colon): 4.14 µM; TGI (COLO 205 colon): > 100 µM; GI50 (CCRF-CEM leukemia): 0.403 µM; TGI (CCRF-CEM leukemia): 1.24 µM; GI50 (HT29 colon): 3.29 µM; TGI (HT29 colon): > 100 µM; GI50 (OVCAR-3 ovarian): 0.5 µM; TGI (OVCAR-3 ovarian): 3.36 µM; GI50 (SNB-75 CNS): 1.41 µM; TGI (SNB-75 CNS): 7.12 µM; GI50 (LOX IMVI melanoma): 3.1 µM; TGI (LOX IMVI melanoma): > 100 µM; GI50 (HCC-2998 colon): 1.5 µM; TGI (HCC-2998 colon): 12.4 µM; GI50 (HCT-15 colon): 0.623 µM; TGI (HCT-15 colon): > 100 µM; GI50 (KM12 colon): 3.93 µM; TGI (KM12 colon): > 100 µM; GI50 (A549 NSCLC): 5.18 µM; TGI (A549 NSCLC): > 100 µM; GI50 (SN12C renal): 1.26 µM; TGI (SN12C renal): > 100 µM; GI50 (A498 renal): 0.718 µM; TGI (A498 renal): 7.71 µM; GI50 (RXF 393 renal): 2.06 µM; TGI (RXF 393 renal): 4.85 µM; GI50 (UO-31 renal): 1.11 µM; TGI (UO-31 renal): > 100 µM; GI50 (OVCAR-5 ovarian): > 100 µM; TGI (OVCAR-5 ovarian): > 100 µM; GI50 (CAKI-1 renal): 3.99 µM; TGI (CAKI-1 renal): > 100 µM; GI50 (NCI/ADR-RES ovarian): 3.33 µM; TGI (NCI/ADR-RES ovarian): > 100 µM; GI50 (NCI-H460 NSCLC): 0.344 µM; TGI (NCI-H460 NSCLC): 84 µM; GI50 (NCI-H322M lung): 5.75 µM; TGI (NCI-H322M lung): > 100 µM; GI50 (HOP-62 NSCLC): 3.22 µM; TGI (HOP-62 NSCLC): > 100 µM; GI50 (IGROV1 ovarian): 3.57 µM; TGI (IGROV1 ovarian): > 100 µM; GI50 (BT-549 breast): 1.6 µM; TGI (BT-549 breast): > 100 µM; GI50 (K-562 leukemia): 0.454 µM; TGI (K-562 leukemia): 1.58 µM; GI50 (SF-295 CNS): 4.48 µM; TGI (SF-295 CNS): > 100 µM
